“Also recorded” adds a separate entry of the source.
Experiments:
[1] = tested on: HeLa cells transfected with wild-type lamin A-CSIM, progerin-CSIM, progerin-SSIM or progerin-CSIL; assay: Nuclear blebbing and GFP localization in transiently transfected HeLa cells treated with FTI; assay type: cell-based; settings: 48 hours
Procedure: Transient Transfections. Approximately 25,000 cells were plated per chamber of 4-chamber slides (Lab-Tek, Nalge Nunc International, #154526). After twenty-four hours, HeLa and HEK-293 cell lines were transiently transfected with 0.8 μg of each construct using LIPOFECTAMINE®2000 transfection reagent (Invitrogen) under standard conditions.
(§1) FTI Treatment. At the time of transient transfection, HeLa cells were treated with one dose of 0, 0.5, 1.0, or 2.0 μM of the selective FTI lonafarnib [Sarasar, SCH66336, (Schering-Plough)]. HEK-293 cells were treated with one dose of 0, 1, 2, 5, or 10 μM of the selective FTI L-744832 (Biomol). […] These FTIs have the same mechanism of action and can be used interchangeably to inhibit protein farnesylation in vitro. However, only lonafarnib is a clinical candidate. Normal and HGPS fibroblasts were treated with one daily dose of 0, 0.5, 1.0, or 2.0 μM of lonafarnib for 3 days.
GFP Localization and Fluorescence Microscopy. Forty-eight hours following transient transfection, the HeLa and HEK-293 cells were visualized for GFP localization using an LSM510 confocal microscope (Zeiss). Following three-day treatment with lonafarnib, HGPS fibroblasts were washed two times with phosphate-buffered saline (PBS) (pH 7.2) and fixed for 10 minutes at room temperature with 1% paraformaldehyde in PBS. Following three washes with PBS, the cells were permeabilized for 5 minutes at room temperature with 0.5% Triton X-100 in PBS and blocked with 5% horse serum for 30 minutes at room temperature. Cells were then incubated for one hour at room temperature with the primary antibody diluted in blocking solution, a […] mouse anti-human lamin A/C at 1:10 (mAb3211, Chemicon). Three more washes with PBS were then followed by incubation with the secondary antibody, Alexa 488-conjugated donkey anti-mouse IgG (Molecular Probes), for 45 minutes and three additional PBS washes. Slides were then mounted with mounting medium containing DAPI (Vector Laboratories).
Morphometric Analysis. To examine the overall percentage of blebbed cells in cells with different amounts and lengths of FTI treatment, 200 nuclei were classified as either blebbed, if they contained two or more lobulations, or not blebbed, as previously described (Goldman et al., Proc. Natl. Acad. Sci. USA 101:8963-8968, 2004). These classifications were done by three independent observers, all blinded to the specifics of the cells being examined, followed by averaging three independent data sets. Armitage's trend test (Armitage, Biometrics 11:375-386, 1955) was used to test for a dose-dependent response for each cell type.

[2] = tested on: HGPS fibroblast lines AG06917, AG11513, AG11498; assay: Nuclear blebbing of HGPS skin fibroblasts treated with FTI; assay type: cell-based, human; settings: once daily 0, 0.5, 1.0, 2.0 μM for three days; p<0.0001
Procedure: Cell Culture. Cell lines used were the normal human fibroblast line, AG06299, and HGPS fibroblast lines: AG06917, AG11513, and AG11498 (obtained from the NIA Aging Cell Culture Repository, Coriell Institute for Medical Research, Camden, N.J.). Fibroblasts were cultured in minimal essential medium (MEM; Invitrogen/Gibco) supplemented with 15% FBS (HiClone), 2 mM L-glutamine, penicillin (50 U/ml) and streptomycin ([…]). HeLa and HEK-293 cell lines were cultured in DMEM (Invitrogen/Gibco) supplemented with 10% fetal bovine serum and antibiotics.
as §1
GFP Localization and Fluorescence Microscopy. Forty-eight hours following transient transfection, the HeLa and HEK-293 cells were visualized for GFP localization using an LSM510 confocal microscope (Zeiss). […]

[3] = tested on: several human cancer cell lines; settings: cited from earlier work
[4] = tested on: human brain, lung, prostate, pancreas, colon, and bladder tumor xenografts; settings: nude mice; cited from earlier work
protein farnesylation = settings: Phase I clinical trial; cited from earlier work
BCR/ABL = settings: cell culture and mouse models; cited from earlier work
[5] = Phase III trials, including trials involving children; cited from earlier work

## NC(=O)N1CCC(CC(=O)N2CCC([C@H]3c4ncc(Br)cc4CCc4cc(Cl)cc(Br)c43)CC2)CC1 [lonafarnib]
[1]; 0 to 2.0 μM
  change of nuclear blebbing, wild-type lamin A-CSIM: unchanged; also recorded: does not change significantly
  percentage of nuclear blebbing, wild-type lamin A-CSIM: approximately 5%
[1]; 2 μM single dose at transfection
  nuclear blebbing, progerin-CSIM: approaching normal blebbing percentages; also recorded: almost totally abolishes
[1]; 2 μM
  localization of progerin, progerin-CSIM: relocalization of progerin into nucleoplasmic aggregates
[1]; single dose 0, 0.5, 1.0, 2.0 μM, p<0.0001
  dose response of nuclear blebbing, progerin-CSIM: dramatic dose-dependent response
[1]; up to 2 μM
  nuclear blebbing, progerin-CSIL: completely resistant; also recorded: resistant to FTI treatment; also recorded: resistant to inhibition of farnesylation
  phenotype, progerin-SSIM: no difference; also recorded: does not change significantly
[2]
  nuclear blebbing in HGPS fibroblasts: significant dose-dependent reduction; also recorded: reversion of the nuclear blebbing
[3]
  proliferation of several human cancer cell lines: inhibit proliferation
[4]
  activity against human tumor xenografts: active
Protein farnesylation
  protein farnesylation in vivo: inhibits
  tolerability: generally well tolerated
BCR/ABL
  anti-leukemic activity: demonstrated
[5]
  tolerability: well tolerated

Reference: patent US8257915B2, “Farnesyltransferase inhibitors for treatment of laminopathies, cellular aging and atherosclerosis” (Progeria Research Foundation, Inc., priority 2002, dated 2012)
